Test results from patent US20110044938A1 (NYCOMED GMBH, priority 2006, published 2011).

Tests used:
[1] = system: RKO (RKOp27) human colon adenocarcinoma cells; assay: Alamar Blue cell viability assay, anti-proliferative/cytotoxic activity on proliferating RKO subclones; assay type: cell-based; details: RKOp27, 72 h, RKO p27 uninduced (proliferating) cells, value = class bound given in Table A, read-out: −logIC50 RKO p27 uninduced (proliferating) (converted)
Outline: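 RKOp27 subclones (5000 cells/well) were exposed 24 h after seeding to semi-log compound dilutions in DMEM with 10% FCS, in quadruplicate, for 72 h at 37 °C. Viability was read by Alamar Blue fluorescence (544/590 nm) relative to untreated cells (1% DMSO medium). IC50 came from concentration-effect curves and is reported as −log IC50 [mol/l].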

[2] = system: subclones of RKO colon adenocarcinoma cells (RKOp27 or RKOp21) arrested by Ponasterone A; assay: Alamar Blue cell viability assay, cell cycle specific mode of action: cells arrested by ectopic p27Kip1 induced by Ponasterone A versus proliferating cells; assay type: cell-based; details: Homo sapiens, RKO p27 induced (arrested) cells, 10 μM Ponasterone A, 72 hours, value = class bound given in Table A, read-out: −logIC50 RKO p27 induced (arrested) (converted)
Outline: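 RKOp27 or RKOp21 cells, 15000/well in DMEM/10% FCS, either arrested by p27Kip1 induced with 10 μM Ponasterone A or proliferating without inducer; compound added after 24 h, 72 h at 37° C. Alamar Blue fluorescence (544/590 nm), viability as % of untreated cells; −log IC50 reported.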

SMILES	IC50 [2] [µM]	IC50 [1] [nM]
Cc1cc(CNC(=O)OCC2CCc3c(sc(NC(=O)CC(C)c4cccnc4)c3C#N)C2)no1 (stereo not drawn) [Example 282, (5-Methyl-isoxazol-3-ylmethyl)-carbamic acid 3-cyano-2-(3-pyridin-3-yl-butanoylamino)-4,5,6,7-tetrahydro-benzo[b]thiophen-6-ylmethyl ester]	≥ 100	≤ 501
CCn1nccc1CNC(=O)OC1CCc2c(sc(NC(=O)CC(C)c3cccc(OC)c3)c2C#N)C1 (stereo not drawn) [Example 286, (2-Ethyl-2H-pyrazol-3-ylmethyl)-carbamic acid 3-cyano-2-[3-(3-methoxy-phenyl)-butanoylamino]-4,5,6,7-tetrahydro-benzo[b] thiophen-6-yl ester]	≥ 100	≤ 501
CC(CC(=O)Nc1sc2c(c1C#N)CCC(OC(=O)NCc1ccccn1)C2)c1ccccc1 (stereo not drawn) [Example 287, Pyridin-2-ylmethyl-carbamic acid 3-cyano-2-(3-phenyl-butanoylamino)-4,5,6,7-tetrahydro-benzo[b] thiophen-6-yl ester]	≥ 10	501 to 2000
CC(CC(=O)Nc1sc2c(c1C#N)CCC(OC(=O)NCc1cccnc1)C2)c1ccccc1 (stereo not drawn) [Example 288, Pyridin-3-ylmethyl-carbamicacid 3-cyano-2-(3-phenyl-butanoyl-amino)-4,5,6,7-tetrahydro-benzo[b]thiophen-6-yl ester]	≥ 10	≤ 501
CC(CC(=O)Nc1sc2c(c1C#N)CCC(OC(=O)NCc1ccncc1)C2)c1ccccc1 (stereo not drawn) [Example 289, Pyridin-4-ylmethyl-carbamic acid 3-cyano-2-(3-phenyl-butanoylamino)-4,5,6,7-tetrahydro-benzo[b] thiophen-6-yl ester]	≥ 10	≤ 501
CC(CC(=O)Nc1sc2c(c1C#N)CCC(OC(=O)NC1CCOCC1)C2)c1ccccc1 (stereo not drawn) [Example 291, (Tetrahydro-pyran-4-yl)-carbamic acid 3-cyano-2-(3-phenyl-butanoyl-amino)-4,5,6,7-tetrahydro-benzo[b]thiophen-6-yl ester]	≥ 10	≤ 501
CC(CC(=O)Nc1sc2c(c1C#N)CCC(OC(=O)NCc1nccn1C)C2)c1ccccc1 (stereo not drawn) [Example 292, (1-Methyl-1H-imidazol-2-ylmethyl)-carbamic acid 3-cyano-2-(3-phenyl-butanoylamino)-4,5,6,7-tetrahydro-benzo[b] thiophen-6-yl ester]	≥ 10	501 to 2000
CC(CC(=O)Nc1sc2c(c1C#N)CCC(OC(=O)NCC1CCCCO1)C2)c1ccccc1 (stereo not drawn) [Example 296, (Tetrahydropyran-2-ylmethyl)-carbamic acid 3-cyano-2-(3-phenyl-butanoylamino)-4,5,6,7-tetrahydro-benzo[b]thiophen-6-yl ester]	≥ 50.1	501 to 2000
CC(CC(=O)Nc1sc2c(c1C#N)CCC(OC(=O)NCC1CCCO1)C2)c1ccccc1 (stereo not drawn) [Example 297, (Tetrahydro-furan-2-ylmethyl)-carbamic acid 3-cyano-2-(3-phenyl-butanoyl-amino)-4,5,6,7-tetrahydro-benzo[b]thiophen-6-yl ester]	≥ 10	501 to 2000
Cc1n[nH]cc1CNC(=O)OC1CCc2c(sc(NC(=O)CC(C)c3ccccc3)c2C#N)C1 (stereo not drawn) [Example 298, (3-Methyl-1H-pyrazol-4-ylmethyl)-carbamic acid 3-cyano-2-(3-phenyl-butanoylamino)-4,5,6,7-tetrahydro-benzo[b]thiophen-6-yl ester]	≥ 10	≤ 501
CC(CC(=O)Nc1sc2c(c1C#N)CCC(OC(=O)NC(C)c1ccnn1C)C2)c1ccccc1 (stereo not drawn) [Example 299, [1-(2-Methyl-2H-pyrazol-3-yl)-ethyl]-carbamic acid 3-cyano-2-(3-phenyl-butanoylamino)-4,5,6,7-tetrahydro-benzo[b]thiophen-6-yl ester]	≥ 50.1	≤ 501
CC(CC(=O)Nc1sc2c(c1C#N)CCC(OC(=O)NCc1cccn1C)C2)c1ccccc1 (stereo not drawn) [Example 300, (1-Methyl-1H-pyrrol-2-ylmethyl)-carbamic acid 3-cyano-2-(3-phenyl-butanoylamino)-4,5,6,7-tetrahydro-benzo[b] thiophen-6-yl ester]	≥ 50.1	≤ 501
CCn1nccc1CNC(=O)OC1CCc2c(sc(NC(=O)CC(C)c3ccccc3)c2C#N)C1 (stereo not drawn) [Example 303, (2-Ethyl-2H-pyrazol-3-ylmethyl)-carbamic acid 3-cyano-2-(3-phenyl-butanoylamino)-4,5,6,7-tetrahydro-benzo[b] thiophen-6-yl ester]	≥ 50.1	≤ 501
CC(CC(=O)Nc1sc2c(c1C#N)CCC(COC(=O)NCc1ccncc1)C2)c1ccccc1 (stereo not drawn) [Example 306, Pyridin-4-ylmethyl-carbamic acid 3-cyano-2-(3-phenyl-butanoyl-amino)-4,5,6,7-tetrahydro-benzo[b] thiophen-6-ylmethyl ester]	≥ 50.1	≤ 501
CC(CC(=O)Nc1sc2c(c1C#N)CCC(COC(=O)NCCc1cccnc1)C2)c1ccccc1 (stereo not drawn) [Example 307, (2-Pyridin-3-yl-ethyl)-carbamic acid 3-cyano-2-(3-phenyl-butanoylamino)-4,5,6,7-tetrahydro-benzo[b]thiophen-6-ylmethyl ester]	≥ 50.1	≤ 501
CC(CC(=O)Nc1sc2c(c1C#N)CCC(COC(=O)NCC1CCOCC1)C2)c1ccccc1 (stereo not drawn) [Example 308, (Tetrahydro-pyran-4-ylmethyl)-carbamic acid 3-cyano-2-(3-phenyl-butanoylamino)-4,5,6,7-tetrahydro-benzo[b]thiophen-6-ylmethyl ester]	≥ 50.1	≤ 501
CC(CC(=O)Nc1sc2c(c1C#N)CCC(COC(=O)NC1CCOCC1)C2)c1ccccc1 (stereo not drawn) [Example 309, (Tetrahydro-pyran-4-yl)-carbamic acid 3-cyano-2-(3-phenyl-butanoylamino)-4,5,6,7-tetrahydro-benzo[b]thiophen-6-ylmethyl ester]	≥ 50.1	≤ 501
CC(CC(=O)Nc1sc2c(c1C#N)CCC(COC(=O)NCCn1ccnc1)C2)c1ccccc1 (stereo not drawn) [Example 310, (2-Imidazol-1-yl-ethyl)-carbamic acid 3-cyano-2-(3-phenyl-butanoyl-amino)-4,5,6,7-tetrahydro-benzo[b]thiophen-6-ylmethyl ester]	≥ 10	501 to 2000

Now from value to molecule, other results behind:

IC50 [2] [µM]	SMILES	IC50 [1] [nM]
≥ 100	CC(CC(=O)Nc1sc2c(c1C#N)CCC(COC(=O)NC(C)c1ccccc1)C2)c1cccnc1 (stereo not drawn) [Example 283, (1-Phenyl-ethyl)-carbamic acid 3-cyano-2-(3-pyridin-3-yl-butanoylamino)-4,5,6,7-tetrahydro-benzo[b]thiophen-6-ylmethyl ester]	501 to 2000
≥ 50.1	CC(CC(=O)Nc1sc2c(c1C#N)CCC(COC(=O)NC(C)c1cccnc1)C2)c1cccnc1 (stereo not drawn) [Example 284, (1-Pyridin-3-yl-ethyl)-carbamic acid 3-cyano-2-(3-pyridin-3-yl-butanoyl-amino)-4,5,6,7-tetrahydro-benzo[b]thiophen-6-ylmethyl ester]	501 to 2000
≥ 50.1	CC(CC(=O)Nc1sc2c(c1C#N)CCC(COC(=O)NCc1cccn1C)C2)c1cccnc1 (stereo not drawn) [Example 285, (1-Methyl-1H-pyrrol-2-ylmethyl)-carbamic acid 3-cyano-2-(3-pyridin-3-yl-butanoylamino)-4,5,6,7-tetrahydro-benzo[b]thiophen-6-ylmethyl ester]	501 to 2000
≥ 10	CC(CC(=O)Nc1sc2c(c1C#N)CCC(OC(=O)NCCc1cccnc1)C2)c1ccccc1 (stereo not drawn) [Example 290, (2-Pyridin-3-yl-ethyl)-carbamic acid 3-cyano-2-(3-phenyl-butanoyl-amino)-4,5,6,7-tetrahydro-benzo[b]thiophen-6-yl ester]	≤ 501
≥ 50.1	CC(CC(=O)Nc1sc2c(c1C#N)CCC(OC(=O)NCc1ccnn1C)C2)c1ccccc1 (stereo not drawn) [Example 293, (2-Methyl-2H-pyrazol-3-ylmethyl)-carbamic acid 3-cyano-2-(3-phenyl-butanoylamino)-4,5,6,7-tetrahydro-benzo[b] thiophen-6-yl ester]	≤ 501
≥ 50.1	Cc1cc(CNC(=O)OC2CCc3c(sc(NC(=O)CC(C)c4ccccc4)c3C#N)C2)no1 (stereo not drawn) [Example 295, (5-Methyl-isoxazol-3-ylmethyl)-carbamic acid 3-cyano-2-(3-phenyl-butanoylamino)-4,5,6,7-tetrahydro-benzo[b] thiophen-6-yl ester]	≤ 501
≥ 50.1	Cc1nn(C)cc1CNC(=O)OC1CCc2c(sc(NC(=O)CC(C)c3ccccc3)c2C#N)C1 (stereo not drawn) [Example 301, (1,3-Dimethyl-1H-pyrazol-4-ylmethyl)-carbamic acid 3-cyano-2-(3-phenyl-butanoylamino)-4,5,6,7-tetrahydro-benzo[b]thiophen-6-yl ester]	≤ 501
≥ 50.1	Cc1cc(CNC(=O)OC2CCc3c(sc(NC(=O)CC(C)c4ccccc4)c3C#N)C2)n(C)n1 (stereo not drawn) [Example 302, (2,5-Dimethyl-2H-pyrazol-3-ylmethyl)-carbamic acid 3-cyano-2-(3-phenyl-butanoylamino)-4,5,6,7-tetrahydro-benzo[b]thiophen-6-yl ester]	≤ 501
≥ 50.1	CC(CC(=O)Nc1sc2c(c1C#N)CCC(COC(=O)NCc1ccccn1)C2)c1ccccc1 (stereo not drawn) [Example 304, Pyridin-2-ylmethyl-carbamic acid 3-cyano-2-(3-phenyl-butanoylamino)-4,5,6,7-tetrahydro-benzo[b] thiophen-6-ylmethyl ester]	≤ 501
